Reference: patent publication EP3919042A1, “COMPOSITION WITH SILANOL, ETHANOL AND WATER FOR GLOBAL DI[…]” (Sil'Innov scrl, priority 2020, dated 2021)

Test: stability of MMST in water without stabilizers
Format: physicochemical
Details: stability declines at higher concentrations
Protocol: In a preferred embodiment of a composition according to the first aspect of the invention, the composition comprises monomethylsilanetriol (MMST). Monomethylsilanetriol (MMST, MeSiOH3 or Si(OH)3CH3) is an organosilanol. […] This organosilanol is highly bioavailable. […] MMST can advantageously be used without stabilizers in silicon equivalent concentrations up to 300 mg/l. The stability of MMST is dependent on concentration and declines at higher concentrations. The stability can further be enhanced by the use of stabilizing agents. In a preferred embodiment the stabilizing agent is based on phenol or polyphenol as described above. The same reasoning applies, mutatis mutandis, with respect to stabilizing effect on the free hydroxyl groups.

## C[Si](O)(O)O [MMST, monomethylsilanetriol]
  silicon equivalent concentration usable without stabilizers: up to 300 mg/l
